Patent US20230219951A1, “PYRIDINE-PYRIMIDINE DERIVATIVE, PREPARATION METHOD THEREFOR AND PHARMACEUTICAL USE THEREOF” (Jiangsu Hengrui Pharmaceuticals Co., Ltd., priority 2020, published 2023)

Legend:
[1] = target: T1, interaction between the KRAS protein subtype G12D and the SOS1 protein (Homo sapiens, UniProt Q07889); experiment: Inhibition of the interaction between KRAS G12D and SOS1 protein (AlphaLISA/AlphaScreen); format: binding; settings: KRAS G12D + GST-TEV-SOS1(564-1049) + GDP
T1 construct: GST-TEV-SOS1(564-1049) (Viva Biotech, SOS1-191010); purchased SOS1: Viva Biotech; KRAS: Shanghai Panchao Biotechnology Co., Ltd. SOS1-191010
T1 sequence (Q07889 564-1049): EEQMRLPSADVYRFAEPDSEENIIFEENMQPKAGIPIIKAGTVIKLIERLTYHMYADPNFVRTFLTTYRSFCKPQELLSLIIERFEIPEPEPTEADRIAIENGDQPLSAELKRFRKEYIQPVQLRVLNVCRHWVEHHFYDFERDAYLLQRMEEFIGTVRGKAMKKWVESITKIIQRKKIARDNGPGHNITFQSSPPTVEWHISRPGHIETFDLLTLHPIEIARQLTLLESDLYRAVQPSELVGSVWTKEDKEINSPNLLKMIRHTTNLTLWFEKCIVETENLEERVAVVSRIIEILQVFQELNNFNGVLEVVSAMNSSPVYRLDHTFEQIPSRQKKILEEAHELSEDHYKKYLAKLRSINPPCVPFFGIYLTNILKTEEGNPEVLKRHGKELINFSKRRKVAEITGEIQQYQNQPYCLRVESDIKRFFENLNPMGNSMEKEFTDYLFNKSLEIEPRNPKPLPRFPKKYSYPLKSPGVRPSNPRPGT
Experimental: (§1) Test Example 1: Inhibitory Ability of Compounds of the Present Disclosure to the Interaction Between the KRAS Protein Subtype G12D or G12V and the SOS1 Protein. The inhibitory ability of the compounds of the present disclosure to the interaction between the KRAS protein subtype G12D or G12V and the SOS1 protein was determined by the following method. The experimental method was briefly described as follows:
(§2) 1. The experimental buffer was prepared prior to the start of the experiment: 1×PBS+0.1% BSA+0.05% tween 20.
(§3) 2. KRAS G12D and KRAS-G12V proteins were labeled with biotin using the biotin labeling kit.
(§4) 1. Firstly, the biotin-labeled KRAS G12D or KRAS G12V protein was mixed and incubated with the SOS1 protein and GDP for later use.
(§5) 2. AlphaLISA glutathione acceptor beads and AlphaScreen streptavidin donor beads were mixed at a ratio of 1:1 to make the concentration of 40 μg/mL for later use.
(§6) 3. The compound was formulated with the experimental buffer to obtain 10 concentration points by 5-fold gradient dilution from an initial concentration of 40 μM.
(§7) 4. In the 384-well microplate, 10 μL of a mixture of KRAS G12D or KRAS G12V protein and SOS1 and GDP and 5 μL of the diluted compound were added to each well and incubated at room temperature for 30 min away from the light.
(§8) 5. Then, 5 μL of a mixture of AlphaLISA glutathione acceptor beads and AlphaScreen streptavidin donor beads was added to each well and incubated at room temperature for 60 min away from the light.
(§9) 6. The fluorescence values were read on a multi-mode microplate reader.
(§10) 7. IC50 values of the compounds were calculated using Graphpad Prism.

[2] = target: T2, interaction between the KRAS protein subtype G12V and the SOS1 protein (Homo sapiens, UniProt Q07889); experiment: Inhibition of the interaction between KRAS G12V and SOS1 protein (AlphaLISA/AlphaScreen); format: binding; settings: KRAS G12V + GST-TEV-SOS1(564-1049) + GDP
T2 construct: GST-TEV-SOS1(564-1049) (Viva Biotech, SOS1-191010); purchased SOS1: Viva Biotech; KRAS: Shanghai Panchao Biotechnology Co., Ltd. SOS1-191010
T2 sequence (Q07889 564-1049): T1 sequence (Q07889 564-1049)
Experimental: as §1, §2, §3, §4, §5, §6, §7, §8, §9, §10

[3] = test system: ERK phosphorylation of H358 cells; experiment: Inhibition of ERK phosphorylation of H358 cells (HTRF pERK/total ERK); format: cell-based; settings: Homo sapiens, NCI-H358, 1 h incubation, pERK/total ERK ratio
Experimental: This experiment is intended to evaluate the inhibition effect of the compounds of the present disclosure on the KRAS target (containing the G12C mutation) according to IC50 by determining the inhibition effect of the compounds on ERK phosphorylation of the cells.
H358 cells (ATCC, CRL-5807) were cultured in RPMI1640 (Hyclone, SH30809.01) complete medium containing 10% fetal bovine serum. On the first day of the experiment, the H358 cells were seeded into a 96-well plate at a density of 25,000 cells/well with a complete medium to form 190 μL of cell suspension per well. The plate was incubated overnight in a cell incubator at 37° C. with 5% CO2. The next day, 10 μL of test compound diluted in a gradient prepared with the complete medium was added to each well. The final concentrations of the compound were 9 concentration points obtained by 5-fold gradient dilution from 10 μM. A blank control containing 0.1% DMSO was set. The plate was incubated in a cell incubator at 37° C. with 5% CO2 for 1 h. 1 h later, the 96-well cell culture plate was taken out, the medium was removed by pipetting, 200 μL PBS (Shanghai BasalMedia Technologies Co., Ltd., B320) was added to each well, and the cells were washed once. PBS was removed by pipetting, 50 μL of lysis buffer (Cisbio, 64KL1FDF) containing a blocking reagent (Cisbio, 64KB1AAC) was added to each well, and the plate was shaken on a shaker at room temperature for 40 min for lysis. After lysis, the lysate was pipetted and mixed well, 16 μL of lysate was transferred from each well to each of two HTRF 96-well assay plates (Cisbio, 66PL96100), and then 4 μL of premixed phospho-ERK1/2 antibody solution (Cisbio, 64AERPEG) or 4 μL of premixed total-ERK1/2 antibody solution (Cisbio, 64NRKPEG) was added to each of the two plates. The microplate was sealed with a sealing membrane, centrifuged for 1 min in a microplate centrifuge, and incubated overnight at room temperature away from the light. On the third day, the fluorescence values at an excitation wavelength of 337 nm and at emission wavelengths of 665 nm and 620 nm were read using a PHERAstar multi-mode microplate reader (BMG Labtech, S/N 471-0361).
IC50 values for inhibitory activity of the compounds were calculated using Graphpad Prism software based on compound concentrations and pERK/total ERK ratio.

[4] = test system: H358 cells; experiment: Inhibition of proliferation of H358 cells (CellTiter-Glo 3D); format: cell-based; settings: Homo sapiens, NCI-H358, low adsorption plate, 120 h
Experimental: This example is intended to evaluate the inhibition effect of the compounds of the present disclosure on the KRAS target (containing the G12C mutation) by testing the inhibition effect of the compounds of the present disclosure on the proliferation of H358 cells.
H358 cells (ATCC, CRL-5807) were cultured in a complete medium, namely RPMI1640 medium (Hyclone, SH30809.01) containing 10% fetal bovine serum (Corning, 35-076-CV). On the first day of the experiment, the H358 cells were seeded into a 96-well low adsorption plate (Coming, CLS7007-24EA) at a density of 1500 cells/well with a complete medium to form 90 μL of cell suspension per well. The plate was centrifuged at 2000 rpm for 5 min at room temperature and then incubated overnight in a cell incubator at 37° C. with 5% CO2. The next day, 10 μL of test compound diluted in a gradient prepared with the complete medium was added to each well. The final concentrations of the compound were 9 concentration points obtained by 5-fold gradient dilution from 10 μM. A blank control containing 0.1% DMSO was set. The plate was incubated in a cell incubator at 37° C. with 5% CO2 for 120 h. On the seventh day, the 96-well cell culture plate was taken out and 50 μL of CellTiter-Glo® 3D reagent (Promega, G9682) was added into each well. The plate was shaken at room temperature for 25 min, pipetted and mixed well, from which 50 μL of the mixture was transferred into a white impermeable 96-well plate (PE, 6005290). The luminescence signal values were read using a multi-mode microplate reader (PerkinElmer, VICTOR 3).
IC50 values for the inhibitory activity of the compounds were calculated using Graphpad Prism software.

**Q.** Which IC50 [1] does the source give for `CC(=O)N1CCC(O)(c2cc3c(N[C@H](C)c4cccc(C(F)F)c4F)nc(C)nc3[nH]c2=O)CC1` [Example 12, (R)-6-(1-acetyl-4-hydroxypiperidin-4-yl)-4-((1-(3-(difluoromethyl)-2-fluorophenyl)ethyl)amino)-2-methylpyrido[2,3-d]pyrimidin-7(8H)-one] here?
**A.** The IC50 was 14 nM.

**Q.** What about the IC50 [2] of the same compound?
**A.** Its IC50 is 50 nM.

**Q.** What about the IC50 [3] of the same compound?
**A.** The IC50 was 48 nM.

**Q.** And the IC50 [4]?
**A.** The IC50 was 55 nM.
